What was measured:
Test in all cases: KINOMEscan kinase profiling
Format in all cases: binding
ACVR1 = molecular target: T1, ACVR1 (Homo sapiens, UniProt Q04771); conditions: read-out: %Inhibition by 10 μM SPA70
T1 construct: purchased DiscoverX (Ambit Biosciences) KINOMEscan
In short: (§1)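 KINOMEscan profiling followed a published protocol. Kinases whose inhibition exceeded a set cut-off were then tested in a dilution series beginning at 30 µM.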

ACVRL1 = molecular target: T2, ACVRL1 (Homo sapiens, UniProt P37023); conditions: read-out: %Inhibition by 10 μM SPA70
T2 construct: purchased DiscoverX (Ambit Biosciences) KINOMEscan
In short: as §1

AMPK-alpha1 = molecular target: T3, AMPK-alpha1 (Homo sapiens, UniProt Q13131); conditions: read-out: %Inhibition by 10 μM SPA70
T3 construct: purchased DiscoverX (Ambit Biosciences) KINOMEscan
In short: as §1

ANKK1 = molecular target: T4, ANKK1 (Homo sapiens, UniProt Q8NFD2); conditions: read-out: %Inhibition by 10 μM SPA70
T4 construct: purchased DiscoverX (Ambit Biosciences) KINOMEscan
T4 sequence (Q8NFD2 whole entry): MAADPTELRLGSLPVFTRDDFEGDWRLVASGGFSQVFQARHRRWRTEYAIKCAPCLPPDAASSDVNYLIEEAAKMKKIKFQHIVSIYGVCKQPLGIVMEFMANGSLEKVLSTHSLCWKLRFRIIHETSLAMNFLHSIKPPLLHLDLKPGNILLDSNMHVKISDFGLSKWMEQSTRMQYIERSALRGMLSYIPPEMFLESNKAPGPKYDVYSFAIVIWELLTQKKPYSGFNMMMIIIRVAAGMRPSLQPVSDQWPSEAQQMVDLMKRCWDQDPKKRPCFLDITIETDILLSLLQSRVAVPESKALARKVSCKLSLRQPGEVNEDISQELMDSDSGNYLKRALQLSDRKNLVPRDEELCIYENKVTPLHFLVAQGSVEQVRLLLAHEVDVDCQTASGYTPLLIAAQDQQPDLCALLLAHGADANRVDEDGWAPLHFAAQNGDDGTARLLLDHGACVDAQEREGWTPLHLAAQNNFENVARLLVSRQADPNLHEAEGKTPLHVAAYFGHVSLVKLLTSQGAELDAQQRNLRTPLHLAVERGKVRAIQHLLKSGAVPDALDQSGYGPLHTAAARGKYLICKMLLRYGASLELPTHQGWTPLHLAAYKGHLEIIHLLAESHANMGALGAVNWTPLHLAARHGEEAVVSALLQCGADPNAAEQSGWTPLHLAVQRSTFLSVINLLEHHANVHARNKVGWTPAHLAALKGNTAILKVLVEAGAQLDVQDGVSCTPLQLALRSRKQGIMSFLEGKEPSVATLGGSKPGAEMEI
In short: as §1

AURKC = molecular target: T5, AURKC (Homo sapiens, UniProt Q9UQB9); conditions: read-out: %Inhibition by 10 μM SPA70
T5 construct: purchased DiscoverX (Ambit Biosciences) KINOMEscan
In short: as §1

BMPR2 = molecular target: T6, BMPR2 (Homo sapiens, UniProt Q13873)
T6 construct: purchased DiscoverX (Ambit Biosciences) KINOMEscan
T6 sequence (Q13873 27-1038): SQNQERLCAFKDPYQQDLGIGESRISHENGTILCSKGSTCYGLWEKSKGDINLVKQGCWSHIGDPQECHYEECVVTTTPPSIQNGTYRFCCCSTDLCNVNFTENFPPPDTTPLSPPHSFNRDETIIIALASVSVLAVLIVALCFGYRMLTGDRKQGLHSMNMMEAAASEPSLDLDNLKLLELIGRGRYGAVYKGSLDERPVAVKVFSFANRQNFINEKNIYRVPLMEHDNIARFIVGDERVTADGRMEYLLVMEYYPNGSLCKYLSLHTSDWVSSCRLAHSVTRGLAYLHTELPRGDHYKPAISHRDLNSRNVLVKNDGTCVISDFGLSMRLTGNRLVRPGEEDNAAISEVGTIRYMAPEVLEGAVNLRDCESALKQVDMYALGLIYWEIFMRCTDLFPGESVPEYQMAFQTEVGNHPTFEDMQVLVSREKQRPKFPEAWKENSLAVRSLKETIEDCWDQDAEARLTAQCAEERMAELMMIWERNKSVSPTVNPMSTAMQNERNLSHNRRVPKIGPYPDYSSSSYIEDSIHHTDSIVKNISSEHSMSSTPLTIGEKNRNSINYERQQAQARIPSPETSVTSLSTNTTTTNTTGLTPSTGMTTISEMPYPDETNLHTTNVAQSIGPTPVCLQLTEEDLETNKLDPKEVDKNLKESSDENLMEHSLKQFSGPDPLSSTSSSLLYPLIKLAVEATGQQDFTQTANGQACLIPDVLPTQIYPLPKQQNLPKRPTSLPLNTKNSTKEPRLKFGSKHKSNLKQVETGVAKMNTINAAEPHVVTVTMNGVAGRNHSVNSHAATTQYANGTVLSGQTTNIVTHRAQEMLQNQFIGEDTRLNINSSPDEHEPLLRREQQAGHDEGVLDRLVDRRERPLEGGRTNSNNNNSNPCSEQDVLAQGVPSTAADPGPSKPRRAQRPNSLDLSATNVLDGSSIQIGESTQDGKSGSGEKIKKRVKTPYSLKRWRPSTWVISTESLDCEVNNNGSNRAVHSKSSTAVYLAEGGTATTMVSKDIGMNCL
In short: as §1

CDK8 = molecular target: T7, CDK8 (Homo sapiens, UniProt P49336)
T7 construct: purchased DiscoverX (Ambit Biosciences) KINOMEscan
In short: as §1

CSNK1A1L = molecular target: T8, CSNK1A1L (Homo sapiens, UniProt Q8N752); conditions: read-out: %Inhibition by 10 μM SPA70
T8 construct: purchased DiscoverX (Ambit Biosciences) KINOMEscan
In short: as §1

EGFR = molecular target: T9, EGFR (Homo sapiens, UniProt P00533)
T9 construct: purchased DiscoverX (Ambit Biosciences) KINOMEscan
In short: as §1

EIF2AK1 = molecular target: T10, EIF2AK1 (Homo sapiens, UniProt Q9BQI3); conditions: read-out: %Inhibition by 10 μM SPA70
T10 construct: purchased DiscoverX (Ambit Biosciences) KINOMEscan
In short: as §1

EPHB2 = molecular target: T11, EPHB2 (Homo sapiens, UniProt P29323)
T11 construct: purchased DiscoverX (Ambit Biosciences) KINOMEscan
In short: as §1

ERN1 = molecular target: T12, ERN1 (Homo sapiens, UniProt O75460); conditions: read-out: %Inhibition by 10 μM SPA70
T12 construct: purchased DiscoverX (Ambit Biosciences) KINOMEscan
In short: as §1

FGR = molecular target: T13, FGR (Homo sapiens, UniProt P09769); conditions: read-out: %Inhibition by 10 μM SPA70
T13 construct: purchased DiscoverX (Ambit Biosciences) KINOMEscan
In short: as §1

GRK7 = molecular target: T14, GRK7 (Homo sapiens, UniProt Q8WTQ7); conditions: read-out: %Inhibition by 10 μM SPA70
T14 construct: purchased DiscoverX (Ambit Biosciences) KINOMEscan
T14 sequence (Q8WTQ7 whole entry): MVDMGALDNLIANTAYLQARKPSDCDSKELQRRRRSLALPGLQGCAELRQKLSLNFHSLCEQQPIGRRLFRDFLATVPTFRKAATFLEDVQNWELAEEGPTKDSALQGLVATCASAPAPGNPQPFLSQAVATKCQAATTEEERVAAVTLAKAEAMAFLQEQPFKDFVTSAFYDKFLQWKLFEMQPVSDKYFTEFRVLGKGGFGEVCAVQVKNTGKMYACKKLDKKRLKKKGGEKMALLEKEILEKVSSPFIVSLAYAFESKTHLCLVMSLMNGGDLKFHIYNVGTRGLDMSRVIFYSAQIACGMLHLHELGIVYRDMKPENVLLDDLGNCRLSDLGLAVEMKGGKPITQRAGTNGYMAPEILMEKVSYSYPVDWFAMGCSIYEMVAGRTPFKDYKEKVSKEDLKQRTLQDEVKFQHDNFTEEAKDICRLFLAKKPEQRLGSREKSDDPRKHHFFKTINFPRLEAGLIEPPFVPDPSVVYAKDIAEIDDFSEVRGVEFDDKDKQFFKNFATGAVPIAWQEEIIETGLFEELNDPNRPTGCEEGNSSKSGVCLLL
In short: as §1

LIMK1 = molecular target: T15, LIMK1 (Homo sapiens, UniProt P53667); conditions: read-out: %Inhibition by 10 μM SPA70
T15 construct: purchased DiscoverX (Ambit Biosciences) KINOMEscan
In short: as §1

LOK = molecular target: T16, LOK (Homo sapiens, UniProt O94804)
T16 construct: purchased DiscoverX (Ambit Biosciences) KINOMEscan
In short: as §1

MYLK2 = molecular target: T17, MYLK2 (Homo sapiens, UniProt Q9H1R3); conditions: read-out: %Inhibition by 10 μM SPA70
T17 construct: purchased DiscoverX (Ambit Biosciences) KINOMEscan
T17 sequence (Q9H1R3 whole entry): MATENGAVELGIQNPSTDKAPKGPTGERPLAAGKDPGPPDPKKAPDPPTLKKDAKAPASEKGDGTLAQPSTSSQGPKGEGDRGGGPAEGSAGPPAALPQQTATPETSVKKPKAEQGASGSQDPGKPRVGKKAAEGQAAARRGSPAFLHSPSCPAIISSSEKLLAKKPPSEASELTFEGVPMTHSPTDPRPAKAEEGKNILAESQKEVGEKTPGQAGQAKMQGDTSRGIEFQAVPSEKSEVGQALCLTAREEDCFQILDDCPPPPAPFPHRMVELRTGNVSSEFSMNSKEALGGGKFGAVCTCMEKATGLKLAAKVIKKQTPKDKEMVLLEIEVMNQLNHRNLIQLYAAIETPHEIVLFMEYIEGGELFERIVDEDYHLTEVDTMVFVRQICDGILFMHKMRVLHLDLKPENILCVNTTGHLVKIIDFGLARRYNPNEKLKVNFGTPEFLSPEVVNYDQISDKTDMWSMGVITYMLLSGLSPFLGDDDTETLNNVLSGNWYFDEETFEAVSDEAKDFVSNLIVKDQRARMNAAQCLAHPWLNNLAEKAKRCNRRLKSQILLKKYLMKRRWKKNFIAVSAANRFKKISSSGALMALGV
In short: as §1

MYO3A = molecular target: T18, MYO3A (Homo sapiens, UniProt Q8NEV4); conditions: read-out: %Inhibition by 10 μM SPA70
T18 construct: purchased DiscoverX (Ambit Biosciences) KINOMEscan
In short: as §1

NDR2 = molecular target: T19, NDR2 (Homo sapiens, UniProt Q9Y2H1); conditions: read-out: %Inhibition by 10 μM SPA70
T19 construct: purchased DiscoverX (Ambit Biosciences) KINOMEscan
In short: as §1

NEK2 = molecular target: T20, NEK2 (Homo sapiens, UniProt P51955); conditions: read-out: %Inhibition by 10 μM SPA70
T20 construct: purchased DiscoverX (Ambit Biosciences) KINOMEscan
In short: as §1

NEK5 = molecular target: T21, NEK5 (Homo sapiens, UniProt Q6P3R8); conditions: read-out: %Inhibition by 10 μM SPA70
T21 construct: purchased DiscoverX (Ambit Biosciences) KINOMEscan
T21 sequence (Q6P3R8 whole entry): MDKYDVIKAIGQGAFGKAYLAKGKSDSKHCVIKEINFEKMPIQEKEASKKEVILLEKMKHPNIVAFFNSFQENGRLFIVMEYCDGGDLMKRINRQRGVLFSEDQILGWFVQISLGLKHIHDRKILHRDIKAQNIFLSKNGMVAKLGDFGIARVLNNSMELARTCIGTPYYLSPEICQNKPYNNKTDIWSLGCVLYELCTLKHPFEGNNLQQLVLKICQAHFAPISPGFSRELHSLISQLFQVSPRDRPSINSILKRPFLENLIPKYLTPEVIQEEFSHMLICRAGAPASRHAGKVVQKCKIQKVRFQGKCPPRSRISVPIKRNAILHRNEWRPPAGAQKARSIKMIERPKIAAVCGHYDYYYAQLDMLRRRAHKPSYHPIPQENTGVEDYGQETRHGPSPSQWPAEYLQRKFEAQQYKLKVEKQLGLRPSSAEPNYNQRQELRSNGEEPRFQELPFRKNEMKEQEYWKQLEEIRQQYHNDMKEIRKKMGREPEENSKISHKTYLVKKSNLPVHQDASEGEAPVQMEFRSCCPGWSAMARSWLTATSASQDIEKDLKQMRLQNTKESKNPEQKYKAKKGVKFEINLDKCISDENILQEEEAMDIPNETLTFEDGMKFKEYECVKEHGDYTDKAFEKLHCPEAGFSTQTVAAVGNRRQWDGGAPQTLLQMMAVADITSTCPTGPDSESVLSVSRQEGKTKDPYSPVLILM
In short: as §1

NEK7 = molecular target: T22, NEK7 (Homo sapiens, UniProt Q8TDX7); conditions: read-out: %Inhibition by 10 μM SPA70
T22 construct: purchased DiscoverX (Ambit Biosciences) KINOMEscan
In short: as §1

NIM1 = molecular target: T23, NIM1 (Homo sapiens, UniProt Q8IY84); conditions: read-out: %Inhibition by 10 μM SPA70
T23 construct: purchased DiscoverX (Ambit Biosciences) KINOMEscan
In short: as §1

PFTAIRE2 = molecular target: T24, PFTAIRE2 (Homo sapiens, UniProt Q96Q40); conditions: read-out: %Inhibition by 10 μM SPA70
T24 construct: purchased DiscoverX (Ambit Biosciences) KINOMEscan
In short: as §1

PFTK1 = molecular target: T25, PFTK1 (Homo sapiens, UniProt O94921)
T25 construct: purchased DiscoverX (Ambit Biosciences) KINOMEscan
In short: as §1

PIK3C2B = molecular target: T26, PIK3C2B (Homo sapiens, UniProt O00750); conditions: read-out: %Inhibition by 10 μM SPA70
T26 construct: purchased DiscoverX (Ambit Biosciences) KINOMEscan
In short: as §1

PIM1 = molecular target: T27, PIM1 (Homo sapiens, UniProt P11309); conditions: read-out: %Inhibition by 10 μM SPA70
T27 construct: purchased DiscoverX (Ambit Biosciences) KINOMEscan
T27 sequence (P11309 whole entry): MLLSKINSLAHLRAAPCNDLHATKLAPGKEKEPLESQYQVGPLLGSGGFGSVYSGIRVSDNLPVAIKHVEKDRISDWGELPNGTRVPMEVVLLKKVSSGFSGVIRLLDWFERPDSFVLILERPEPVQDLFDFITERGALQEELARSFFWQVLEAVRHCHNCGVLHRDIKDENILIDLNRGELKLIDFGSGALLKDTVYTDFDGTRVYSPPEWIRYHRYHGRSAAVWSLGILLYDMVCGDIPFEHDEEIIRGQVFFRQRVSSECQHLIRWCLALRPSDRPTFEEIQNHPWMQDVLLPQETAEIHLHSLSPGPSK
In short: as §1

PKMYT1 = molecular target: T28, PKMYT1 (Homo sapiens, UniProt Q99640)
T28 construct: purchased DiscoverX (Ambit Biosciences) KINOMEscan
T28 sequence (Q99640 whole entry): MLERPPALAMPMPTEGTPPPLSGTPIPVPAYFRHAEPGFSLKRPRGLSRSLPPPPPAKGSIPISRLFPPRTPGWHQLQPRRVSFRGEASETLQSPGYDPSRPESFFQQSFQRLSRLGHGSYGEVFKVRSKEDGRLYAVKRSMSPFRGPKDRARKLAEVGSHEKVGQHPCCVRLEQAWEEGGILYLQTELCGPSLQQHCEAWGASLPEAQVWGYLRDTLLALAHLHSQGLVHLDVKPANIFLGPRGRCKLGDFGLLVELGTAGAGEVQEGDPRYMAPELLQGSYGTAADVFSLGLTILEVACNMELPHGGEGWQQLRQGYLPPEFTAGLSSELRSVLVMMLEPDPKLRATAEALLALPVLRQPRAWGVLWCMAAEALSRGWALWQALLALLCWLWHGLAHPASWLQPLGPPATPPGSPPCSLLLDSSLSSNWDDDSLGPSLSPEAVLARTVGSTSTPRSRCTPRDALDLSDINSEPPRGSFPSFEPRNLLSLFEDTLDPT
In short: as §1

PKN1 = molecular target: T29, PKN1 (Homo sapiens, UniProt Q16512); conditions: read-out: %Inhibition by 10 μM SPA70
T29 construct: purchased DiscoverX (Ambit Biosciences) KINOMEscan
In short: as §1

PLK3 = molecular target: T30, PLK3 (Homo sapiens, UniProt Q9H4B4); conditions: read-out: %Inhibition by 10 μM SPA70
T30 construct: purchased DiscoverX (Ambit Biosciences) KINOMEscan
In short: as §1

QSK = molecular target: T31, QSK (Homo sapiens, UniProt Q9Y2K2)
T31 construct: purchased DiscoverX (Ambit Biosciences) KINOMEscan
In short: as §1

RIOK1 = molecular target: T32, RIOK1 (Homo sapiens, UniProt Q9BRS2); conditions: read-out: %Inhibition by 10 μM SPA70
T32 construct: purchased DiscoverX (Ambit Biosciences) KINOMEscan
T32 sequence (Q9BRS2 whole entry): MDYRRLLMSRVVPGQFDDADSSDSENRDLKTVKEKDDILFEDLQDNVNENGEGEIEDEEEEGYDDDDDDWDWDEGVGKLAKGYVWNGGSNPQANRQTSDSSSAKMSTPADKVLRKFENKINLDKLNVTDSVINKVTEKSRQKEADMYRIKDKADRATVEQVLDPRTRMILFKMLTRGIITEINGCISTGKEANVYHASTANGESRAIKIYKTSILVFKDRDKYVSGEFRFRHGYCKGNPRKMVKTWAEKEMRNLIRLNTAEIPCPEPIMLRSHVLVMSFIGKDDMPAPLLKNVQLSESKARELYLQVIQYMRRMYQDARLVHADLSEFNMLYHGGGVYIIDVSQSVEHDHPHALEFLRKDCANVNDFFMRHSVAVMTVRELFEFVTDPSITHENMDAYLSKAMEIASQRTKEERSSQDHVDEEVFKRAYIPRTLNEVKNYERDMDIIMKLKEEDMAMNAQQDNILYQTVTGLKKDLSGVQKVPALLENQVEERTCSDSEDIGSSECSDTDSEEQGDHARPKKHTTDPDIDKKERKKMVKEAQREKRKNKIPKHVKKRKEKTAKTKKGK
In short: as §1

STK36 = molecular target: T33, STK36 (Homo sapiens, UniProt Q9NRP7); conditions: read-out: %Inhibition by 10 μM SPA70
T33 construct: purchased DiscoverX (Ambit Biosciences) KINOMEscan
In short: as §1

SgK110 = molecular target: T34, SgK110 (Homo sapiens, UniProt P0C264); conditions: read-out: %Inhibition by 10 μM SPA70
T34 construct: purchased DiscoverX (Ambit Biosciences) KINOMEscan
In short: as §1

TRKC = molecular target: T35, TRKC (Homo sapiens, UniProt Q16288); conditions: read-out: %Inhibition by 10 μM SPA70
T35 construct: purchased DiscoverX (Ambit Biosciences) KINOMEscan
In short: as §1

TSSK1B = molecular target: T36, TSSK1B (Homo sapiens, UniProt Q9BXA7); conditions: read-out: %Inhibition by 10 μM SPA70
T36 construct: purchased DiscoverX (Ambit Biosciences) KINOMEscan
In short: as §1

ULK1 = molecular target: T37, ULK1 (Homo sapiens, UniProt O75385)
T37 construct: purchased DiscoverX (Ambit Biosciences) KINOMEscan
In short: as §1

YANK1 = molecular target: T38, YANK1 (Homo sapiens, UniProt Q8WU08); conditions: read-out: %Inhibition by 10 μM SPA70
T38 construct: purchased DiscoverX (Ambit Biosciences) KINOMEscan
In short: as §1

YANK3 = molecular target: T39, YANK3 (Homo sapiens, UniProt Q86UX6); conditions: read-out: %Inhibition by 10 μM SPA70
T39 construct: purchased DiscoverX (Ambit Biosciences) KINOMEscan
In short: as §1

YSK1 = molecular target: T40, YSK1 (Homo sapiens, UniProt O00506); conditions: read-out: %Inhibition by 10 μM SPA70
T40 construct: purchased DiscoverX (Ambit Biosciences) KINOMEscan
In short: as §1

ZAP70 = molecular target: T41, ZAP70 (Homo sapiens, UniProt P43403); conditions: read-out: %Inhibition by 10 μM SPA70
T41 construct: purchased DiscoverX (Ambit Biosciences) KINOMEscan
In short: as §1

p38-delta = molecular target: T42, p38-delta (Homo sapiens, UniProt O15264); conditions: read-out: %Inhibition by 10 μM SPA70
T42 construct: purchased DiscoverX (Ambit Biosciences) KINOMEscan
In short: as §1

Question: What does the source list for `COc1ccc(OC)c(-n2nnc(S(=O)(=O)c3ccc(C(C)(C)C)cc3)c2C)c1` [SPA70]?
Answer: inhibition at 10 µM (ACVR1): 0%; inhibition at 10 µM (ACVRL1): 6%; inhibition at 10 µM (AMPK-alpha1): 0%; inhibition at 10 µM (ANKK1): 0%; inhibition at 10 µM (AURKC): 2%; %Inhibition by 10 μM SPA70 (BMPR2): 10%; %Inhibition by 10 μM SPA70 (CDK8): 2%; inhibition at 10 µM (CSNK1A1L): 0%; %Inhibition by 10 μM SPA70 (EGFR): 0%; inhibition at 10 µM (EIF2AK1): 0%; %Inhibition by 10 μM SPA70 (EPHB2): 0%; inhibition at 10 µM (ERN1): 0%; inhibition at 10 µM (FGR): 6%; inhibition at 10 µM (GRK7): 0%; inhibition at 10 µM (LIMK1): 0%; %Inhibition by 10 μM SPA70 (LOK): 0%; inhibition at 10 µM (MYLK2): 0%; inhibition at 10 µM (MYO3A): 0%; inhibition at 10 µM (NDR2): 0%; inhibition at 10 µM (NEK2): 4%; inhibition at 10 µM (NEK5): 0%; inhibition at 10 µM (NEK7): 0%; inhibition at 10 µM (NIM1): 4%; inhibition at 10 µM (PFTAIRE2): 0%; %Inhibition by 10 μM SPA70 (PFTK1): 0%; inhibition at 10 µM (PIK3C2B): 0%; inhibition at 10 µM (PIM1): 0%; %Inhibition by 10 μM SPA70 (PKMYT1): 38%; inhibition at 10 µM (PKN1): 0%; inhibition at 10 µM (PLK3): 33%; %Inhibition by 10 μM SPA70 (QSK): 43%; inhibition at 10 µM (RIOK1): 47%; inhibition at 10 µM (STK36): 0%; inhibition at 10 µM (SgK110): 0%; inhibition at 10 µM (TRKC): 0%; inhibition at 10 µM (TSSK1B): 0%; %Inhibition by 10 μM SPA70 (ULK1): 5%; inhibition at 10 µM (YANK1): 0%; inhibition at 10 µM (YANK3): 0%; inhibition at 10 µM (YSK1): 2%; inhibition at 10 µM (ZAP70): 22%; inhibition at 10 µM (p38-delta): 21%

Source: paper PMC5622171 (Nature Communications, 2017)
